# Source: PMC5295379, “Acquired savolitinib resistance in non-small cell lung cancer arises via multiple mechanisms that converge on MET-independent mTOR and MYC activation” (Oncotarget, 2016)
# Molecular target: MET (Homo sapiens, UniProt P08581)
# Assay: pMET (Y1234/[…]) immunoblot densitometry in MET-amplified H1993 and EBC-1 cells, […] h dose response
# Type: cell-based
# Chain of MET (P08581 25-307): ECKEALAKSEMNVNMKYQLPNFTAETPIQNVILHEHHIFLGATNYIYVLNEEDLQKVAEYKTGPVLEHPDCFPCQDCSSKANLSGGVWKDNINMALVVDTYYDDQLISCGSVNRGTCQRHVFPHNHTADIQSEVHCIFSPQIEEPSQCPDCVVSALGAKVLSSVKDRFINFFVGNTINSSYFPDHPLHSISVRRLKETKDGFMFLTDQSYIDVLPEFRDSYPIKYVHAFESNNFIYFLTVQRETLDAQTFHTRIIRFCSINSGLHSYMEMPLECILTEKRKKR
# Chain of MET (P08581 308-1390): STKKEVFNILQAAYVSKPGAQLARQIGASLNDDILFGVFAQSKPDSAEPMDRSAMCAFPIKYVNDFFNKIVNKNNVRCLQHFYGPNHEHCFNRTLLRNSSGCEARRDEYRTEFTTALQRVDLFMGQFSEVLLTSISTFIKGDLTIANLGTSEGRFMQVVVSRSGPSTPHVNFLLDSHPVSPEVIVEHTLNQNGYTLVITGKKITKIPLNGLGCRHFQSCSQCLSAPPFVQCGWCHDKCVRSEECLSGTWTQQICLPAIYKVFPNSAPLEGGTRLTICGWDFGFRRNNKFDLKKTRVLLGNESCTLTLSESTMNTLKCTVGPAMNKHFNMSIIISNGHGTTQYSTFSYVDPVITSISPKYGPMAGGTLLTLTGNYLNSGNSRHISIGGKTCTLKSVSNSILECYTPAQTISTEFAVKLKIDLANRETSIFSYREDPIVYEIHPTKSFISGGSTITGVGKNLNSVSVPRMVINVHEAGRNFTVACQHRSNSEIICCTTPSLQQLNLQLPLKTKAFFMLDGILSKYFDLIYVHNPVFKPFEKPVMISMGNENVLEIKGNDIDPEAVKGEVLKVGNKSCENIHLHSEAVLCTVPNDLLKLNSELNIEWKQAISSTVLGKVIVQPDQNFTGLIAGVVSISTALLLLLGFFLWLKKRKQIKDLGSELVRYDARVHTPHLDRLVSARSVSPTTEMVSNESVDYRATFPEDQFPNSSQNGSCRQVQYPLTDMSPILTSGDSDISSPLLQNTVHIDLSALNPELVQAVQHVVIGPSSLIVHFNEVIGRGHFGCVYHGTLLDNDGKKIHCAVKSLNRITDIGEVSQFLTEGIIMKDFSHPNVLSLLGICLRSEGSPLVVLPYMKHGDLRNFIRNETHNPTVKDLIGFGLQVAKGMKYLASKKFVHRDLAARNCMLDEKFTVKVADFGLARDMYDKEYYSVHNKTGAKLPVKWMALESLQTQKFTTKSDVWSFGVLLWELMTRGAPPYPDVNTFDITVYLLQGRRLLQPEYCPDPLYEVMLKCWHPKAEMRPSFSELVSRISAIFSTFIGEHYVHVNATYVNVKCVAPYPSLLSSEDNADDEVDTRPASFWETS
smiles,measurement,value
"C[C@@H](c1ccc2nccn2c1)n1nnc2ncc(-c3cnn(C)c3)nc21 [savolitinib, (S)-1-(1-(Imidazo[1,2-a]pyridin-6-yl)ethyl)-6-(1-methyl-1H-pyrazol-4-yl)-1H-[1,2, 3]triazolo[4,5-b]pyrazine]",IC50,4.12 nM
